Results from patent US20080039410A1, “Inositol 1,4,5-Trisphosphate Receptor Mutants and Uses Thereof” (priority 2004, published 2008).

Test system: S2+ InsP3R-1
Experiment: CCh concentration-response of Ca2+ release in Dt-40 3ko cells expressing m3R and S2+ InsP3R-1 constructs
Format: cell-based, rat
Settings: for maximum peak Δ response to CCh: Fura-2 340/380 ratio; for fold change from WT (CCh EC50): S2 + InsP3R-1 constructs, Table 2; for EC50: fit of normalized initial peak, read-out: EC50 for CCh-induced Ca^2+ release
Source text: The rat S2^+ InsP3R-1 in the expression plasmid pIRES-GFP was digested with the restriction endonuclease SalI. The overhang created by digestion was blunted by using T4 polymerase. An EcoRI linker was then ligated onto the blunted ends of the construct. The entire receptor DNA was excised from the plasmid using EcoRI and ligated into the plasmid MXT-1. The region containing the S2^− splice variant and potential PKA phosphorylation sites was excised from its backbone in pCDNA 3.1+ by RsrII and KasI and ligated into the InsP3R construct in MXT-1. The potential PKA phosphorylation sites Ser-1589 and Ser-1755 were mutated, individually in both splice variants and together in the S2^− splice variant, to alanines or glutamates by using sequential PCR mutagenesis. The outside primers used for the mutagenesis reaction flanked the restriction sites RsrII and KasI. Following mutation, the resulting fragments were cut with RsrII and KasI and inserted into the InsP3R-1 backbone at the corresponding sites. The mutations were confirmed by Big Dye fluorescent sequencing. Mutated receptor DNAs were excised from MXT-1 by using EcoRI and ligated into the mammalian expression vector pGW (provided by Dr. David Yue, Johns Hopkins University). Orientation was confirmed by using restriction enzyme digestion. Mutants were named based on the splice variant, either S2+ or S2− followed by the amino acid present at position 1589 and 1755. Thus, a mutation in S2^+ InsP3R-1 S1755E is designated, “S2+SE,” and in InsP3R-1 […] S1755A is designated “S2^−SA”. Similarly, an S2− InsP3R-1 with mutations in both S1589E and S1755E is designated “S2−EE”. The numbering of residues is based on the full-length rat InsP3R-1.
Dt-40 cells lacking all three InSP3 receptor subtypes were transfected by using electroporation at 350 V and 950 microfarads (4-mm gap cuvette). 2×10^7 cells were co-transfected with 25 μg of the InsP3R-1 cDNA, 25 μof the muscarinic type 3 (m3R) receptor DNA, and 4 μg of the red fluorescent protein plasmid pHcRed1-N1 (Clontech). Cells were incubated with DNA in 500 μl of Opti-MEM media (Invitrogen) on ice for 10 min. The cell/DNA mixture was electroporated, incubated on ice for 30 min, increased to 5 ml with Opti-MEM, and placed in a 5% CO2 incubator at 39° C. for 5 h. The cells were then centrifuged and resuspended in 12 ml of complete RPMI media (Invitrogen). Transfection efficiency was typically ˜20%. Experiments were performed within 32 h of transfection.
Transfected Dt-40 3ko cells were washed once in a HEPES-buffered physiological saline solution (HEPES-PSS) containing (in mM) 5.5 glucose, 137 NaCl, 0.56 MgCl2, 4.7 KCl, 1 Na2HPO4, 10 HEPES (pH 7.4), 1.2 CaCl2, and 1% w/v bovine serum albumin. Cells were then resuspended in bovine serum albumin HEPES-PSS with 1 μM Fura-2 (AM), placed on a 15-mm glass coverslip in a low volume perfusion chamber, and allowed to adhere for 30 min at room temperature. Cells were perfused continuously for 10 min with HEPES-PSS before experimentation to allow complete Fura-2 de-esterification. A field of cells for each experiment was chosen that contained a wide range of transfection efficiency based upon the intensity of red fluorescence emitted when excited at 560 nm. Individual cells that had emission gray levels between 1500 and 2500 were subsequently chosen to standardize expression levels. [Ca^2+]i imaging was performed essentially as described previously by using an inverted epifluorescence Nikon microscope with a 40× oil immersion objective lens (numerical aperture, 1.3) (100). Cells were excited alternately with light at 340 and 380±10 nm bandpass filters (Chroma, Rockingham, Vt.) using a monochrometer (TILL Photonics, Pleasanton, Calif.). Fluorescence images were captured and digitized with a digital camera driven by TILL Photonics software. Images were captured every 2 s with an exposure of 2 ms and 4 by 4 binning. 340/380 ratio images were calculated online and stored immediately to a hard disk. […]

S2+ES: S2+ InsP3R-1, long splice variant with S1589E
maximum peak Δ response to CCh: 0.59±0.2 ratio units
fold change from WT (CCh EC50): 1.3 fold
EC50: 23.7 ± 1.2 nM

S2+SE: phosphomimetic S2+ InsP3R-1, long splice variant of S1755E
fold more sensitive than S2+WT (CCh-induced Ca^2+ release): ~9 fold
fold more sensitive than nonphosphorylatable S2+SA: ~32 fold
sensitivity of CCh-induced Ca^2+ release relative to other constructs: increased sensitivity
maximum peak Δ response to CCh: 0.59±0.1 ratio units
fold change from WT (CCh EC50): 8.9 fold
EC50: 3.6 ± 0.2 nM
